Experimental findings from patent US7989459B2, “Purinones and 1H-imidazopyridinones as PKC-theta inhibitors” (Pharmacopeia, LLC, priority 2006, dated 2011) are described below.

Holding throughout (assay type): biochemical
One test has as its target PKCθ (Homo sapiens, UniProt Q04759). Nature of the test: Ki Pan Vera (PV) PKCθ. The protocol: (§1) For Ki Pan Vera (PV) of PKCθ, entries identified with “A” had values below 100 nM; entries identified with “B” had values below 1 μM.
In another test the target is PKC delta (Homo sapiens, UniProt Q05655). Put plainly: Ki Pan Vera (PV) PKC delta.
The target of a further test is PKC alpha (Homo sapiens, UniProt P17252). Nature of the test: Ki Pan Vera (PV) PKC alpha. The procedure: [Worded in the source for another target; this target is reported under the same test.] as §1
The target in the next test is T1, SGK1 (Homo sapiens, UniProt O00141).
T1 sequence (O00141 1-431): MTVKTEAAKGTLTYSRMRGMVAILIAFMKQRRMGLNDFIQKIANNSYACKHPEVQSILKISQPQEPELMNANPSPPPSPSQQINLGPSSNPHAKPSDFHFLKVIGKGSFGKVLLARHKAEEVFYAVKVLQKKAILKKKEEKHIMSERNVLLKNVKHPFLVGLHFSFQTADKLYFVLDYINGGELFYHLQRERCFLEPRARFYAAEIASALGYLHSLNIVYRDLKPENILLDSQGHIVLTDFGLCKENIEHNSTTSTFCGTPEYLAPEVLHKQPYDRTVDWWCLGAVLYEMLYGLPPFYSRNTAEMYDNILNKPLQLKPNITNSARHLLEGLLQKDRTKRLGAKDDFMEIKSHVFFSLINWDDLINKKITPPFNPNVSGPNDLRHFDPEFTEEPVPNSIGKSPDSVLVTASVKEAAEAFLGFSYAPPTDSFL
Put plainly: IC50 for kinase SGK (selectivity). The procedure:
Entries identified with “1” had values above 15 nM; entries identified with “2” had values above 100 nM; entries identified with “3” had values above 1 μM; entries identified with “4” had values above 10 μM. In Table 2, “nd” stands for “not determined.”

A value given as a limit tells only on which side of the number the result lay.

Chain of PKCθ (Q04759 whole entry): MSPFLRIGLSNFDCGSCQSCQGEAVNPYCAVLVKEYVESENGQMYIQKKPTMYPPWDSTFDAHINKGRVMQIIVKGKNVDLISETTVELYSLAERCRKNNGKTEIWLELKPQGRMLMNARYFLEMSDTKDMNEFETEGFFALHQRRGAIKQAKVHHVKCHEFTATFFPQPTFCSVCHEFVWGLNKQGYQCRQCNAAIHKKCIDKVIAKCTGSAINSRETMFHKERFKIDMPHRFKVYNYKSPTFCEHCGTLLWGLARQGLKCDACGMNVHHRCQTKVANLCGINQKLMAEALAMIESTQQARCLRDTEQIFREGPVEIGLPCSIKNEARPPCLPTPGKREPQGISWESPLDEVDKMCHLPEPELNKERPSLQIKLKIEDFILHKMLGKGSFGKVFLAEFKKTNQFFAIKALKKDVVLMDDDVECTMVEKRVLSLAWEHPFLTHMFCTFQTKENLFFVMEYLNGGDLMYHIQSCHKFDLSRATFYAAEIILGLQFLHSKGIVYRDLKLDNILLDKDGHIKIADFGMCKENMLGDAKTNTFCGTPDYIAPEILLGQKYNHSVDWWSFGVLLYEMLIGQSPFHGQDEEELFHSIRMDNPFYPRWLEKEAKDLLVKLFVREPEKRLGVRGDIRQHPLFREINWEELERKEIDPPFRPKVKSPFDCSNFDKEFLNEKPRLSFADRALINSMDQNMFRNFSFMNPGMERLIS
Chain of PKC delta (Q05655 whole entry): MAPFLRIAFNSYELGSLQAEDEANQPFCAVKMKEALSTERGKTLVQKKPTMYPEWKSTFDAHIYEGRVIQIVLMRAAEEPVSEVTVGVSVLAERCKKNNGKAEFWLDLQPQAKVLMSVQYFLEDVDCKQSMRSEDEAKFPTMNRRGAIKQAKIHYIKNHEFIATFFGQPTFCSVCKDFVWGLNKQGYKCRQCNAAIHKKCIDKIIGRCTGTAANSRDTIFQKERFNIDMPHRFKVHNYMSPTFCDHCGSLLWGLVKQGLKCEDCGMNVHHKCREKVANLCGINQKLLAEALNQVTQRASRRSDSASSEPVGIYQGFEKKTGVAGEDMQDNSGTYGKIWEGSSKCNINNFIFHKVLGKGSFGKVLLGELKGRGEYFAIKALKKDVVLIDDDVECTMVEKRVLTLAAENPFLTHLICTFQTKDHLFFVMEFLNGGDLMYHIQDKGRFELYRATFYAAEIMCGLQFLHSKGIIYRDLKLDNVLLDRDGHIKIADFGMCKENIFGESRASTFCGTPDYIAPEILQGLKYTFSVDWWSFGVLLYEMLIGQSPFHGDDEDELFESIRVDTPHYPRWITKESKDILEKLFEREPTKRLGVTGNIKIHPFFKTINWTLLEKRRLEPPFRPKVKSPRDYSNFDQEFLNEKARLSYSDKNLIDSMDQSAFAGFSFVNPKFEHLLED

As a reminder, the Ki is a measure of affinity in units of concentration, obtained from inhibition or displacement. Regarding `O=c1[nH]c2cnc(NC[C@H]3CCCNC3)nc2n1Cc1ccccc1Br` [Compound 141], the Ki at PKCθ was under 1 µM; on PKC delta, over 0.1 µM; at PKC alpha, over 10 µM. Moreover, the “IC50-SGK1 (nM)” value against SGK1 was “Inactive”.
As a reminder, the IC50 is the concentration at which inhibition is half-maximal. A low value points to higher potency. Regarding `O=c1[nH]c2cnc(NCC3CCNC3)nc2n1Cc1cc(F)ccc1C(F)(F)F` (centres unmarked) [Compound 105], the Ki was under 0.1 µM on PKCθ, over 0.015 µM at PKC delta and over 1 µM at PKC alpha. In addition, the IC50 against SGK1 was over 1 µM.
For the compound `O=c1[nH]c2ccc(NC[C@@H]3CCNC3)nc2n1Cc1c(Cl)cccc1Cl` [Compound 147, (R)-3-(2,6-Dichlorobenzyl)-5-(pyrrolidin-3-ylmethylamino)-1H-imidazo[4,5-b]pyridin-2(3H)-one], the Ki at PKCθ is under 0.1 µM; on PKC delta, over 0.015 µM; at PKC alpha it was over 1 µM. Also, the IC50 against SGK1 is over 10 µM.
For `NCCCNc1ncc2[nH]c(=O)n(Cc3ccccc3Br)c2n1` [Compound 127], the Ki on PKCθ is under 0.1 µM; on PKC delta, over 0.1 µM; at PKC alpha, over 10 µM. Moreover, the IC50 on SGK1 was over 1 µM.
Take `O=c1[nH]c2cnc(NCC3CCNCC3)nc2n1-c1cccc(Cl)c1` [Compound 224]: the figures for the Ki at PKCθ, at PKC delta and at PKC alpha were under 1 µM, over 1 µM and over 1 µM, respectively.
For `Cc1ccccc1Cn1c(=O)[nH]c2cnc(NCCCN)nc21` [Compound 216], the Ki at PKCθ was under 1 µM; on PKC delta, over 1 µM; at PKC alpha, over 10 µM.
Take `O=c1[nH]c2cnc(NC[C@H]3CCNC3)nc2n1Cc1ccccc1Cl` [Compound 103]: the values for the Ki on PKCθ, at PKC delta and at PKC alpha were under 0.1 µM, over 0.015 µM and over 1 µM, respectively. Moreover, the IC50 against SGK1 is over 1 µM.
For the compound `O=c1[nH]c2cnc(NCC3CCNCC3)nc2n1Cc1ccccc1Cl` [Compound 206], the Ki on PKCθ is under 1 µM; on PKC delta, over 0.1 µM; at PKC alpha, over 10 µM. For the same compound, on SGK1, the “IC50-SGK1 (nM)” value is on record as “Inactive”.
`COc1ccccc1Cn1c(=O)[nH]c2cnc(NCCCN)nc21` [Compound 218]: the Ki was under 1 µM at PKCθ, over 1 µM on PKC delta and over 10 µM on PKC alpha.
Regarding `O=c1[nH]c2cnc(NCC3CCCNC3)nc2n1Cc1ccccc1Cl` (centres unmarked) [Compound 203], the Ki on PKCθ is under 1 µM; on PKC delta it was over 0.1 µM; on PKC alpha, over 10 µM. For the same compound, the “IC50-SGK1 (nM)” value at SGK1 was “Inactive”.
Take `O=c1[nH]c2cnc(NC[C@H]3CCCNC3)nc2n1Cc1c(Cl)cccc1Cl` [Compound 140]: the inhibition constant Ki at PKCθ was under 1 µM; on PKC delta it was over 0.1 µM; at PKC alpha it was over 10 µM. The compound further came in with an IC50 against SGK1 of over 10 µM.
`O=c1[nH]c2cnc(NCC3CCNC3)nc2n1Cc1c(F)cccc1Cl` (centres unmarked) [Compound 106]: the Ki is under 0.1 µM at PKCθ, over 0.015 µM at PKC delta and over 1 µM at PKC alpha. In addition, at SGK1, the IC50 was over 10 µM.
`NCCCNc1ncc2[nH]c(=O)n(Cc3cccc(Cl)c3)c2n1` [Compound 214]: the Ki is under 1 µM on PKCθ, over 1 µM at PKC delta and over 10 µM on PKC alpha.
For `O=c1[nH]c2cnc(NCCCn3ccnc3)nc2n1Cc1c(Cl)cccc1C(F)(F)F` [Compound 207], in that order: under 1 µM, over 0.1 µM and over 10 µM.
On to `NCCCNc1ccc2[nH]c(=O)n(Cc3ccccc3Cl)c2n1` [Compound 241], for which the Ki is under 1 µM at PKCθ, over 0.1 µM at PKC delta and over 10 µM at PKC alpha. Also, the “IC50-SGK1 (nM)” value at SGK1 is “Inactive”.
In the case of `O=c1[nH]c2cnc(NCC3CCNC3)nc2n1Cc1ccccc1F` (centres unmarked) [Compound 204], the Ki was under 1 µM on PKCθ, over 0.1 µM at PKC delta and over 10 µM at PKC alpha. In addition, the IC50 against SGK1 is over 10 µM.
For `O=c1[nH]c2cnc(NC[C@@H]3CCNC3)nc2n1Cc1ccccc1C(F)(F)F` [Compound 116], the Ki at PKCθ is under 0.1 µM; on PKC delta, over 0.1 µM; on PKC alpha, over 1 µM. The IC50 at SGK1 was over 10 µM.
Regarding `O=c1[nH]c2cnc(NC[C@H]3CCNC3)nc2n1Cc1ccccc1C(F)(F)F` [Compound 122], the Ki was under 0.1 µM at PKCθ, over 0.1 µM at PKC delta and over 1 µM on PKC alpha. In addition, on SGK1, the “IC50-SGK1 (nM)” value was “Inactive”.
On to `NCCCNc1ncc2[nH]c(=O)n(Cc3c(F)cccc3F)c2n1` [Compound 129], for which the Ki on PKCθ is under 0.1 µM; on PKC delta, over 0.1 µM; on PKC alpha it was over 10 µM. For the same compound, the “IC50-SGK1 (nM)” value at SGK1 is recorded as “Inactive”.
For the compound `O=c1[nH]c2cnc(NCC3CCNC3)nc2n1Cc1cccc(Cl)c1Cl` (centres unmarked) [Compound 114], the Ki at PKCθ was under 0.1 µM; at PKC delta, over 0.1 µM; on PKC alpha it was over 10 µM. The same compound returned an IC50 at SGK1 of over 10 µM.
Consider `O=c1[nH]c2cnc(NC[C@@H]3CCCNC3)nc2n1Cc1c(Cl)cccc1Cl` [Compound 138], for which the Ki on PKCθ is under 0.1 µM; on PKC delta it was over 0.1 µM; at PKC alpha, over 10 µM. The same compound came in with an IC50 on SGK1 of over 10 µM.
`NCCCNc1ccc2[nH]c(=O)n(Cc3c(Cl)cccc3Cl)c2n1` [Compound 149]: the Ki on PKCθ is under 0.1 µM; at PKC delta, over 0.1 µM; at PKC alpha, over 10 µM. In addition, at SGK1, the “IC50-SGK1 (nM)” value is given as “Inactive”.
Regarding `O=c1[nH]c2cnc(NCC3CCNC3)nc2n1Cc1c(Cl)cccc1Cl` (centres unmarked) [Compound 108], the Ki at PKCθ was under 0.1 µM; on PKC delta, over 0.015 µM; at PKC alpha, over 1 µM. Also, the IC50 against SGK1 is over 10 µM.
Consider `NCCCNc1ncc2[nH]c(=O)n(Cc3c(F)cccc3Cl)c2n1` [Compound 118], for which the results for the Ki at PKCθ, on PKC delta and at PKC alpha were under 0.1 µM, over 0.1 µM and over 10 µM, respectively. In addition, on SGK1, the “IC50-SGK1 (nM)” value is reported as “Inactive”.
As to `NCCCNc1ncc2[nH]c(=O)n(Cc3ccccc3Cl)c2n1` [Compound 124], the Ki at PKCθ is under 0.1 µM; at PKC delta, over 0.1 µM; at PKC alpha, over 10 µM. Moreover, the IC50 on SGK1 is over 10 µM.
Take `O=c1[nH]c2cnc(NCC3CCNCC3)nc2n1Cc1ccccc1C(F)(F)F` [Compound 145]: the Ki at PKCθ was under 1 µM; at PKC delta, over 1 µM; at PKC alpha, over 10 µM. Also, the “IC50-SGK1 (nM)” value at SGK1 is on record as “Inactive”.
Take `O=c1[nH]c2cnc(NCC3CCNC3)nc2n1Cc1ccccc1Br` (centres unmarked) [Compound 104]: the figures for the Ki on PKCθ, on PKC delta and at PKC alpha were under 0.1 µM, over 0.015 µM and over 1 µM, respectively. This compound came in with an IC50 at SGK1 of over 10 µM.
As for `O=c1[nH]c2cnc(NCC3CCNCC3)nc2n1Cc1c(Cl)cccc1Cl` [Compound 205], the figures for the Ki on PKCθ, on PKC delta and on PKC alpha were under 1 µM, over 0.1 µM and over 10 µM, respectively. Further, at SGK1, the “IC50-SGK1 (nM)” value was “Inactive”.
With `O=c1[nH]c2cnc(NCC3CCNC3)nc2n1Cc1ccccc1C(F)(F)F` (centres unmarked) [Compound 109], the values for the Ki at PKCθ, at PKC delta and on PKC alpha were under 0.1 µM, over 0.015 µM and over 1 µM, respectively.
Consider `O=c1[nH]c2cnc(NCC3CCNCC3)nc2n1Cc1cccc(Cl)c1` [Compound 215], for which the Ki was under 1 µM on PKCθ, over 1 µM on PKC delta and over 10 µM on PKC alpha.
Regarding `NCCCNc1ncc2[nH]c(=O)n(Cc3cccc(Cl)c3Cl)c2n1` [Compound 117], the Ki is under 0.1 µM on PKCθ, over 0.1 µM at PKC delta and over 10 µM at PKC alpha. Besides, the “IC50-SGK1 (nM)” value against SGK1 is recorded as “Inactive”.
As for `O=c1[nH]c2ccc(NC[C@H]3CCNC3)nc2n1Cc1c(Cl)cccc1Cl` [Compound 148], the Ki was under 0.1 µM on PKCθ, over 0.1 µM at PKC delta and over 10 µM at PKC alpha.
For `O=c1[nH]c2cnc(NC[C@@H]3CCNC3)nc2n1Cc1ccccc1Cl` [Compound 128], the Ki on PKCθ is under 1 µM; on PKC delta, over 0.1 µM; at PKC alpha, over 10 µM. On SGK1, this compound registered an IC50 of over 10 µM.
In the case of `NCCCNc1ncc2[nH]c(=O)n(Cc3ccccc3C(F)(F)F)c2n1` [Compound 136], the Ki is under 0.1 µM at PKCθ, over 0.1 µM on PKC delta and over 10 µM on PKC alpha. Besides, the “IC50-SGK1 (nM)” value against SGK1 is given as “Inactive”.
Regarding `O=c1[nH]c2cnc(NCC3CCNC3)nc2n1Cc1ccccc1OC(F)(F)F` (centres unmarked) [Compound 112], the Ki at PKCθ was under 0.1 µM; on PKC delta, over 0.1 µM; at PKC alpha, over 1 µM. Besides, the “IC50-SGK1 (nM)” value at SGK1 is “Inactive”.
For `NCCCNc1ncc2[nH]c(=O)n(Cc3ccccc3F)c2n1` [Compound 208] the same measures were under 1 µM, over 0.1 µM, over 10 µM and “Inactive”.
In the case of `NCCCNc1ncc2[nH]c(=O)n(Cc3cc(F)ccc3C(F)(F)F)c2n1` [Compound 133], the Ki at PKCθ was under 0.1 µM; on PKC delta, over 0.1 µM; at PKC alpha, over 10 µM. At SGK1, the IC50 is over 1 µM.
As to `O=c1[nH]c2cnc(NCC3CCNC3)nc2n1[C@@H]1CCc2ccccc21` (some centres unmarked) [Compound 231], the Ki on PKCθ is under 1 µM; at PKC delta it was over 1 µM; on PKC alpha it was over 10 µM.
